In patent US9212387B2, “Method for detection of genes targeted by microRNA” (National University Corporation Okayama University, priority 2010, dated 2015):
{Biotin} = biotin label; {P} = phosphate

Assays:
[1] = tested on: target gene mRNAs of miR-183 in HEK293 cell extract; assay: Pull down of target gene mRNAs of miR-183 with biotinylated miRNA from cell extract, RT-PCR assay; assay type: binding, human; conditions: for candidate genes whose mRNA was pulled down / RT-PCR bands: 14 kinds of target candidate genes of miR-183, HEK293 cell extract, streptavidin agarose beads; for target candidate genes of miR-183 (10 kinds) in pull-down complex: VIL2, PPP2CA, RREB1, BCL2L11, PDCD4, LATS2, RSU1, ING3, DNMT3A, BRMS1L, wash 400 mM KCl
[2] = tested on: target candidate genes of let-7b (mRNA in cell extract); assay: Pull down of target gene mRNAs of let-7b with biotinylated miRNA, RT-PCR assay; assay type: binding, human; conditions: wash 400 mM KCl; for E2F6 and SOCS4 in pulled down mRNA: Example 8; for E2F2, TUSC2 and SRSF8 in pulled down mRNA: Example 9
Excerpt: In this example, in the detection method for target genes of miRNA of Example 1, target genes were detected through the use of let-7b as biotinylated miRNA. In accordance with the biotinylated miRNA of 1) of Example 1, biotinylated let-7b in which the sense strand had its 5′ end and 3′ end modified by phosphorylation and biotin, respectively, and the guide strand had only its 5′ end modified by phosphorylation and biotinylated miR-183 as a negative control were synthesized (FASMAC Co., Ltd.). A pull-down complex was obtained by the same technique as in Example 1 through the use of streptavidin beads (Streptavidin Mutein Matrix: Roche), and washed five times with a wash solution containing 400 mM KCl in the same manner as in Example 5. After that, RNA purification and cDNA synthesis were performed from the complex binding to the beads. The resulting cDNA was subjected to an RT-PCR assay with primers specific for the E2F6 and SOCS4-2 genes as target candidate genes of let-7b.
In this example, in the detection method for target genes of miRNA of Example 1, target genes were detected through the use of let-7b as biotinylated miRNA. In this example, the detection was performed by the same technique as in Example 8 except that biotinylated miR-29a was used as a negative control in place of biotinylated miR-183. Also in the case of the biotinylated miR-29a, one in which the sense strand had its 5′ end and 3′ end modified by phosphorylation and biotin, respectively, and the antisense strand had only its 5′ end modified by phosphorylation was produced (FASMAC Co., Ltd.). An RT-PCR assay was performed with primers specific for the PRDM2, E2F2, TUSC2, and SRSF8 genes as target candidate genes let-7b.

[3] = tested on: target candidate genes of miR-19a (mRNA in cell extract); assay: Pull down of target gene mRNAs of miR-19a with biotinylated miRNA, RT-PCR assay; assay type: binding, human
Excerpt: In this example, in the detection method for target genes of miRNA of Example 1, target genes were detected through the use of miR-19a as biotinylated miRNA. In accordance with the biotinylated miRNA of 1-1) of Example 1, biotinylated miR-19a in which the sense strand had its 5′ end and 3′ end modified by phosphorylation and biotin, respectively, and the antisense strand had only its 5′ end modified by phosphorylation was were synthesized (FASMAC Co., Ltd.). The synthesized biotinylated miR-19a (400 pmole) and biotin (B4501: Sigma, […]) as a negative control were subjected to the treatments of 1-2) and 1-3) of Example 1. A pull-down complex was obtained from the resulting complex by the same technique as in 1-4) through the use of streptavidin beads (Streptavidin Mutein Matrix: Roche), and washed five times with a wash solution containing 400 mM KCl in the same manner as in Example 5. After that, the precipitate was treated with a 5 mM biotin solution (containing 5 mM biotin and an RNase inhibitor in the wash solution containing 400 mM KCl) at 42° C. for 5 minutes, and centrifuged in the same manner, and the pull-down complex (biotinylated miR-19a) was liberated from the streptavidin beads. […]
In this example, target genes were detected through the use of miR-19a as biotinylated miRNA in the detection method for target genes of miRNA of Example 1. […]

AGO2 protein = target: T1, AGO2 protein (Homo sapiens, UniProt Q9UKV8); assay: AGO2 protein in pull-down complex, Western blot; assay type: binding; conditions: HEK293 cell extract; streptavidin agarose beads 1 hour
T1 construct: endogenous in cells; host or cells: HEK293 cell extract
T1 sequence (Q9UKV8 whole entry): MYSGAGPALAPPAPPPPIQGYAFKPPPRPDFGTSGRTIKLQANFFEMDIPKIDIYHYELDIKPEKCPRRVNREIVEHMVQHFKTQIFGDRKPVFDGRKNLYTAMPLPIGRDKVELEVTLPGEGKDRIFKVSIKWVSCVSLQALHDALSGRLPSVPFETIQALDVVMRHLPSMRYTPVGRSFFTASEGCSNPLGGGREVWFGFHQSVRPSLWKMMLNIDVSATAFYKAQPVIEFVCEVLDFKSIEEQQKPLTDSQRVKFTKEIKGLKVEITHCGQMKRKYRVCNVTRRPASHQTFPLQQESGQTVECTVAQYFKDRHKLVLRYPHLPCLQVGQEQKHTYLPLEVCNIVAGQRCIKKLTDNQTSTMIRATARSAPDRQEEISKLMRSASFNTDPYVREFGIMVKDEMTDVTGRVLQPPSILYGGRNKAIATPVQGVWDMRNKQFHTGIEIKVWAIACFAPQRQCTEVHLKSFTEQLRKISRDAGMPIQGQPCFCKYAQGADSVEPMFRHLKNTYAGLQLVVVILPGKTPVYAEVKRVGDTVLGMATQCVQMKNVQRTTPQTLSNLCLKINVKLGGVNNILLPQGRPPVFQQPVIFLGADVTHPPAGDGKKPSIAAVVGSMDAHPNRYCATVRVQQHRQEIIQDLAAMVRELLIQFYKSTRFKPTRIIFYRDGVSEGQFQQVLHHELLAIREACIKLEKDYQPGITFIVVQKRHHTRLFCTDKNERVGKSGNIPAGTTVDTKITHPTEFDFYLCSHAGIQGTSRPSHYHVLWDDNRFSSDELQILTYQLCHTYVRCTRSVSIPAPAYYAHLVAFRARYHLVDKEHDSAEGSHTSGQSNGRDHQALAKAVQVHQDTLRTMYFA
Method: Biotinylated miR-183 was produced by the same technique as that for the biotinylated miRNA of 1-1) of Example 1, and a cell extract of HEK293 cells was produced by the same technique as that for the cell extract of 1-2) of Example 1. Five tubes in each of which biotinylated double-stranded miR-183 ([…]) was added to 500 μl of the cell extract were produced, and were each subjected to a reaction at 4° C. for 30 minutes, and then at 30° C. for 60 minutes to provide a solution containing a biotinylated miRNA-target gene mRNA complex. To the solution containing the complex were added streptavidin agarose beads (Streptavidin Mutein Matrix, No. 03 708 152 001: Roche), and each tube was treated at 4° C. for 0 minutes, 2 minutes, 12 minutes, 24 minutes, or 1 hour. […]
The presence or absence of the AGO2 protein in the pull-down complex of Example 2 was confirmed. […] By the same technique as in Experimental Example 1-2, the sample was electrophoresed with 8% SDS-polyacrylamide gel, proteins were then blotted onto a PVDF membrane and subjected to a reaction through the use of an anti-AGO2 antibody (Anti Human AGO2 monoclonal antibody; Wako Pure Chemical Industries, Ltd., No. 016-20861), an anti-mouse antibody, and a Vecstatin ABC-AP kit (Vector Laboratories), and a fluorescence image was acquired with an image analyzer (LAS-1000; FUJIFILM). […]

Substance | candidate genes whose mRNA was pulled down / RT-PCR bands [1] | E2F6 and SOCS4 in pulled down mRNA [2] | E2F2, TUSC2 and SRSF8 in pulled down mRNA [2] | target candidate genes of miR-183 (10 kinds) in pull-down complex [1] | also measured
biotinylated let-7b: Sense SEQ ID NO: 3, 5′-phosphorylated, 3′-biotinylated; antisense SEQ ID NO: 4 | no band for any of the genes was detected | contained | contained |  | 
biotinylated miR-19a: Sense SEQ ID NO: 7, 5′-phosphorylated, 3′-biotinylated; antisense SEQ ID NO: 8 (sense UGUGCAAAUCUAUGCAAAACUGA; antisense AGUUUUGCAUAGAUUUGCAUAAG; sense: RNA, 5' {P}, 3' {Biotin}, backbone not given here; antisense: RNA, 5' {P}, backbone not given here) |  |  |  |  | target candidate genes (9 genes) of miR-19a in pulled down mRNA ([3]; JAZF1, TNF, SMAD4, HIP1, HIC1, LRP12, TNFRSF12A, TUSC2, SIVA1, Example 11): contained; target candidate genes (7 kinds) of miR-19a in 5 mM biotin extract or on remaining beads ([3]; SOX4, INHBB, TP531NP1, PTP4A1, TNFAIP3, HIC1, CNKSR2, Example 10): present
biotinylated miR-29a: Sense SEQ ID NO: 5, 5′-phosphorylated, 3′-biotinylated; antisense SEQ ID NO: 6; negative control (sense UAGCACCAUCUGAAAUCGGUUA; antisense ACCGAUUUCAGAUGGUGCCAAG; sense: RNA, 5' {P}, 3' {Biotin}, backbone not given here; antisense: RNA, 5' {P}, backbone not given here) |  |  | not contained |  | 
biotinylated miR-183: Sense SEQ ID NO: 1, 5′-phosphorylated, 3′-biotinylated; antisense SEQ ID NO: 2 with a 1-base mismatch (sense UAUGGCACUGGUAGAAUUCACU; antisense UGAAUUCUACCAGUGCCACAAG; sense: RNA, 5' {P}, 3' {Biotin}, backbone not given here; antisense: RNA, 5' {P}, backbone not given here) | 7 | not contained |  | contained | AGO2 protein (about 95 kDa) in pull-down complex (AGO2 protein): detected
natural type miRNA: Original mature miRNA type: sense SEQ ID NO: 1, antisense SEQ ID NO: 9 (sense UAUGGCACUGGUAGAAUUCACU; antisense GUGAAUUACCGAAGGGCCAUAA; sense: RNA, 5' {P}, 3' {Biotin}, backbone not given here; antisense: RNA, 5' {P}, backbone not given here) |  |  |  | contained | 
